Tests used:
[1] = system: left hippocampus (BBB opening and closure); assay: 9.4 T MRI of gadolinium deposition after FUS with SonoVue in APP/PS1 and NTg mice (Example C); format: in vivo, mouse
Description: In an example, transgenic mice expressing mutant human APPK670N,M671L protein (line Tg2576) and a line of mice expressing human mutant PS1M146V protein (line 8.9) were crossed to generate offspring: doubly transgenic APP/PS1 animals and wild-type NTg littermates A total of six mice (age: 12 months, mass: 26-37 g) were used: transgenic APP/PS1 (n=3) and NTg (m=3) mice.
The experimental timeline is depicted in FIG. 17. Each mouse 180 with intact skin and skull 182 was anesthetized using 1.25-2.50% isoflurane (SurgiVet, Smiths Medical PM, Inc., Wisconsin, USA) and placed prone with its head immobilized by a stereotaxic apparatus 184 (David Kopf Instruments, Tujunga, Calif.) that included a mouse head holder, ear bars, and a gas anesthesia mask (FIG. 16). […] A degassed water-filled container 186 sealed at the bottom with a thin, acoustically and optically transparent, Saran™ Wrap (Saran, SC Johnson, Racine, Wis., USA) was placed on top of the mouse head (FIG. 16). Ultrasound coupling gel 188 was also used to eliminate any remaining impedance mismatch.
FIG. 18(A) illustrates the frontal bone 200, sagittal suture 202, lambdoid suture 204, left parietal bone 206, right parietal bone 208, and intraparietal bone 210. […] The beam axis of the transducer was aligned 2.25 mm away from the sagittal suture 202 and 2 mm away from the lambdoid suture 204 (FIG. 18(A)). The focal point was placed 3 mm beneath the top of the parietal bone of the skull (dotted line in FIG. 18(A)). In this placement, the focus of the FUS beam overlapped with the left hippocampus 212 and the left posterior cerebral artery (PCA) (FIG. 18(A)-(B)). […] After the BBB opening, gadolinium was injected and monitored with MRI (FIG. 18(C). The horizontal slices shown in FIGS. 18(B)-(C) were obtained approximately 3 mm beneath the top of the skull. […]
A vertical bore 9.4-Tesla MR scanner (Bruker Medical, Boston, Mass., USA) was used to acquire images of mouse brains in two separate sessions. […] 1-2% isoflurane was administered while the respiration rate of the mouse was monitored throughout the entire MRI procedure. […]

[2] = system: left hippocampus of the mouse brain (BBB opening)
Description: Brown CB57-b16 type mice (Charles River Laboratories, Wilmington, Mass., USA; mass: 23 to 28 g) were used in sonication procedures. The mice were anesthetized with a mixture of ketamine (Fort Dodge Animal Health, Fort Dodge, Iowa, USA; concentration: 75 mg per kg of body mass) and xylazine (Ben Venue Laboratories, Bedford, Ohio, USA; concentration: 3.75 mg per kg of body mass). Before sonication, the hair on the top of the mouse heads was removed using an electric trimmer and a depilatory cream. After sonication, but before MRI scanning, the mice were switched to administration of isoflurane to simplify the long anesthesia procedure necessary for MRI scanning. During all imaging procedures, the vital signs of the mice were continuously monitored.
Ultrasound gel was used further to reduce any remaining impedance mismatches between the thin plastic layer 138 and the mouse skin.
The focus of the transducer 102 was positioned inside the mouse brain using a grid positioning method, as discussed above. In this method, the sutures of the mouse skull seen through the skin were used as anatomic landmarks for targeting purposes. The location of the hippocampi were assumed relative to the sutures based on the mouse brain and known skull anatomy, as illustrated in FIG. 4. […] In CB57-b16 type mice, these were the sutures that could be clearly seen through the skin.
Ultrasound contrast medium was administered for transport across the BBB. A bolus of 10 μL (approximately 0.4 mL/kg) of ultrasound contrast agent (Optison) that contained microbubbles (mean diameter: 3.0 to 4.5 μm: concentration: 5.0 to 8.0×108 bubbles per mL) was injected into the right femoral vein of the mouse approximately 15 minutes before sonication (Table 1). Pulsed-wave FUS (burst rate: 10 Hz; burst duration: 20 ms; duty cycle: 20%; acoustic pressures at the focus: 2.0, 2.5 and 2.7 MPa) was then applied in a series of five shots lasting 30 seconds each with a 30 second delay between each shot. The FUS sonication procedure was performed once in each mouse brain. […]

Area and degree of contrast enhancement, day 2 ([1]; 0.64 MPa, 25 μl SonoVue, scans 22 hours post-sonication, second gadolinium injection, compared with day 1): significantly reduced
Residual gadolinium in pre-gadolinium T1 and T2-weighted images ([1]; before the day 2 scan (22 hours post-sonication)): no residual gadolinium
Contrast enhancement on T1 MRI scans ([2]; in vivo, ip): no contrast enhancement was observed
SMILES: [Gd] [gadolinium]
Contrast enhancement on MR images, day 1 ([1]; 0.64 MPa, 25 μl SonoVue, scans 90 min post-sonication, 90 min post-gadolinium injection (0.75 ml IP)): the entire left hippocampus and some of its surrounding regions were contrast-enhanced
Contrast enhancement / permeation on T1 MRI scans [2]: eventually encompassing the entire left hippocampus
Contrast enhancement / BBB opening on T1 MRI scans ([2]; in vivo, ip): highly localized opening of the BBB near the PCA

— patent US20090005711A1, “Systems and methods for opening of the blood-brain barrier of a subject using ultrasound” (priority 2005, published 2009)
